Reference: ChEMBL document CHEMBL6096652, “Design, synthesis and anti-tumor evaluation of novel pyrimidine and quinazoline analogues” (Eur J Med Chem, 2025)
Active and inactive are the calls of the source. The rule behind the calls is not given here.

Columns and labels:
B16-F10 [1] = assay: Induction of cell cycle arrest in mouse B16-F10 cells assessed as accumulation at S phase at 200 nM incubated for 24 hrs by flow cytometry (reference value: 37.84 %); assay type: functional
B16-F10 [2] = assay: Induction of apoptosis in mouse B16-F10 cells assessed as total apoptotic cells at 100 nM incubated for 24 hrs by Annexin V-PE/7-AAD staining based flow cytometry (reference value: 5.17 %); assay type: functional
B16-F10 [3] = assay: Antiproliferative activity against mouse B16-F10 cells incubated for 48 hrs by MTT assay; assay type: functional, cell-based; conditions: B16-F10, 48 h
A549 = assay: Antiproliferative activity against human A549 cells incubated for 48 hrs by MTT assay; assay type: functional, cell-based; conditions: A549, 48 h
B16-F10 [4] = assay: Induction of cell cycle arrest in mouse B16-F10 cells assessed as accumulation at G1 phase at 200 nM incubated for 24 hrs by flow cytometry (reference value: 57.91 %); assay type: functional
B16-F10 [5] = assay: Induction of apoptosis in mouse B16-F10 cells assessed as early apoptotic cells at 100 nM incubated for 24 hrs by Annexin V-PE/7-AAD staining based flow cytometry (reference value: 1.04 %); assay type: functional
B16-F10 [6] = assay: Induction of cell cycle arrest in mouse B16-F10 cells assessed as accumulation at G1 phase at 100 nM incubated for 24 hrs by flow cytometry (reference value: 57.91 %); assay type: functional
B16-F10 [7] = assay: Antitumor activity against mouse B16-F10 cells implanted in C57BL/6 mouse assessed as reduction in tumor volume at 15 mg/kg measured after 10 days; assay type: functional, organism-based; conditions: time 10.0 day
B16-F10 [8] = assay: Induction of cell cycle arrest in mouse B16-F10 cells assessed as accumulation at S phase at 100 nM incubated for 24 hrs by flow cytometry (reference value: 37.84 %); assay type: functional
B16-F10 [9] = assay: Induction of apoptosis in mouse B16-F10 cells assessed as viable cells at 50 nM incubated for 24 hrs by Annexin V-PE/7-AAD staining based flow cytometry (reference value: 94.5 %); assay type: functional; conditions: read-out: Activity
B16-F10 [10] = assay: Antitumor activity against mouse B16-F10 cells implanted in C57BL/6 mouse at 15 mg/kg measured after 10 days relative to control; assay type: functional; conditions: B16-F10, 240 h, time 10 day, read-out: TGI
B16-F10 [11] = assay: Induction of apoptosis in mouse B16-F10 cells assessed as late apoptotic cells at 200 nM incubated for 24 hrs by Annexin V-PE/7-AAD staining based flow cytometry (reference value: 4.13 %); assay type: functional
B16-F10 [12] = assay: Induction of cell cycle arrest in mouse B16-F10 cells assessed as accumulation at G2/M phase incubated for 24 hrs by flow cytometry; assay type: functional, cell-based
B16-F10 [13] = assay: Induction of cell cycle arrest in mouse B16-F10 cells assessed as accumulation at G1 phase at 50 nM incubated for 24 hrs by flow cytometry (reference value: 57.91 %); assay type: functional
B16-F10 [14] = assay: Induction of cell cycle arrest in mouse B16-F10 cells assessed as accumulation at G2/M phase at 50 nM incubated for 24 hrs by flow cytometry (reference value: 4.25 %); assay type: functional
MCF7 = assay: Antiproliferative activity against human MCF7 cells incubated for 48 hrs by MTT assay; assay type: functional, cell-based; conditions: MCF7, 48 h
HepG2 = assay: Antiproliferative activity against human HepG2 cells incubated for 48 hrs by MTT assay; assay type: functional, cell-based; conditions: HepG2, 48 h
B16-F10 [15] = assay: Induction of apoptosis in mouse B16-F10 cells assessed as necrotic cells at 200 nM incubated for 24 hrs by Annexin V-PE/7-AAD staining based flow cytometry (reference value: 0.33 %); assay type: functional
B16-F10 [16] = assay: Induction of apoptosis in mouse B16-F10 cells assessed as necrotic cells at 50 nM incubated for 24 hrs by Annexin V-PE/7-AAD staining based flow cytometry (reference value: 0.33 %); assay type: functional
B16-F10 [17] = assay: Induction of cell cycle arrest in mouse B16-F10 cells assessed as accumulation at S phase at 50 nM incubated for 24 hrs by flow cytometry (reference value: 37.84 %); assay type: functional
B16-F10 [18] = assay: Inhibition of cell migration in mouse B16-F10 cells assessed as recovery of scratch area at 50 nM incubated for 24 hrs by wound healing assay (reference value: 72.97 %); assay type: functional; parameters: scale not given: the % may be the effect or the level left
B16-F10 [19] = assay: Induction of apoptosis in mouse B16-F10 cells assessed as total apoptotic cells at 50 nM incubated for 24 hrs by Annexin V-PE/7-AAD staining based flow cytometry (reference value: 5.17 %); assay type: functional
B16-F10 [20] = assay: Induction of apoptosis in mouse B16-F10 cells assessed as viable cells at 100 nM incubated for 24 hrs by Annexin V-PE/7-AAD staining based flow cytometry (reference value: 94.5 %); assay type: functional; conditions: read-out: Activity
B16-F10 [21] = assay: Induction of apoptosis in mouse B16-F10 cells assessed as total apoptotic cells at 200 nM incubated for 24 hrs by Annexin V-PE/7-AAD staining based flow cytometry (reference value: 5.17 %); assay type: functional
B16-F10 [22] = assay: Induction of apoptosis in mouse B16-F10 cells assessed as late apoptotic cells at 100 nM incubated for 24 hrs by Annexin V-PE/7-AAD staining based flow cytometry (reference value: 4.13 %); assay type: functional
Tubulin = assay: (§1) Inhibition of tubulin polymerization (unknown origin) measured upto 20 mins by absorbance based assay; assay type: protein-complex assay, Homo sapiens
Tubulin (Homo sapiens) [23] = target: T1, Tubulin (Homo sapiens) (UniProt P68371+Q9H4B7+P0DPH7+P68366+Q13509+Q71U36+P04350+Q3ZCM7+P07437+P68363+Q9BQE3+Q6PEY2+Q13885+Q9BVA1+Q9BUF5); assay: as §1; assay type: protein-complex assay
B16-F10 [24] = assay: Antitumor activity against mouse B16-F10 cells implanted in C57BL/6 mouse at 30 mg/kg measured after 10 days relative to control; assay type: functional; conditions: B16-F10, 240 h, time 10 day, read-out: TGI
B16-F10 [25] = assay: Induction of apoptosis in mouse B16-F10 cells assessed as necrotic cells at 100 nM incubated for 24 hrs by Annexin V-PE/7-AAD staining based flow cytometry (reference value: 0.33 %); assay type: functional
Tubulin (Homo sapiens) [26] = target: T1, Tubulin (Homo sapiens); assay: Disruption of microtubule polymerization in human HepG2 cells at 100 nM incubated for 12 hrs by immunofluorescence based analysis; assay type: cell-based
B16-F10 [27] = assay: Inhibition of cell migration in mouse B16-F10 cells assessed as recovery of scratch area at 100 nM incubated for 24 hrs by wound healing assay (reference value: 72.97 %); assay type: functional; parameters: scale not given: the % may be the effect or the level left
B16-F10 [28] = assay: Induction of apoptosis in mouse B16-F10 cells assessed as late apoptotic cells at 50 nM incubated for 24 hrs by Annexin V-PE/7-AAD staining based flow cytometry (reference value: 4.13 %); assay type: functional
B16-F10 [29] = assay: Induction of apoptosis in mouse B16-F10 cells assessed as viable cells at 200 nM incubated for 24 hrs by Annexin V-PE/7-AAD staining based flow cytometry (reference value: 94.5 %); assay type: functional; conditions: read-out: Activity
B16-F10 [30] = assay: Induction of apoptosis in mouse B16-F10 cells assessed as early apoptotic cells at 50 nM incubated for 24 hrs by Annexin V-PE/7-AAD staining based flow cytometry (reference value: 1.04 %); assay type: functional
B16-F10 [31] = assay: Induction of cell cycle arrest in mouse B16-F10 cells assessed as accumulation at G2/M phase at 200 nM incubated for 24 hrs by flow cytometry (reference value: 4.25 %); assay type: functional
B16-F10 [32] = assay: Induction of apoptosis in mouse B16-F10 cells assessed as early apoptotic cells at 200 nM incubated for 24 hrs by Annexin V-PE/7-AAD staining based flow cytometry (reference value: 1.04 %); assay type: functional
B16-F10 [33] = assay: Inhibition of cell migration in mouse B16-F10 cells assessed as recovery of scratch area at 200 nM incubated for 24 hrs by wound healing assay (reference value: 72.97 %); assay type: functional; parameters: scale not given: the % may be the effect or the level left
B16-F10 [34] = assay: Induction of cell cycle arrest in mouse B16-F10 cells assessed as accumulation at G2/M phase at 100 nM incubated for 24 hrs by flow cytometry (reference value: 4.25 %); assay type: functional
[35] = Toxicity in C57BL/6 mouse implanted with mouse B16-F10 cells assessed as adverse effects at 15 to 30 mg/kg measured after 10 days; assay type: organism-based; conditions: in vivo, 240 h, dose 15-30 mg/kg, time 10 day
[36] = Toxicity in C57BL/6 mouse implanted with mouse B16-F10 cells assessed as body weight change at 15 to 30 mg/kg measured after 10 days; assay type: organism-based; conditions: in vivo, 240 h, dose 15-30 mg/kg, time 10 day

Q: With `COc1cc(Nc2ccnc(-c3cccc4c3ccn4C)n2)cc(OC)c1OC` as the molecule, how does the Activity (B16-F10 [1]) read?
A: The Activity was 11.67%.

Q: What about the Activity (B16-F10 [2]) of the same molecule?
A: The Activity was 13.49%.

Q: What about the IC50 (B16-F10 [3]) of the same molecule?
A: The IC50 was 98 nM.

Q: And the IC50 (A549)?
A: The IC50 was 135 nM.

Q: And the Activity (B16-F10 [4])?
A: Its Activity is 5.91%.

Q: And the Activity (B16-F10 [5])?
A: The Activity was 3.58%.

Q: And the Activity (B16-F10 [6])?
A: The Activity was 11.76%.

Q: And the Activity (B16-F10 [7])?
A: The Activity was “Active”.

Q: What about the Activity (B16-F10 [8]) of the same molecule?
A: The Activity was 23.18%.

Q: And the viability at 0.05 µM (B16-F10 [9])?
A: Its viability at 0.05 µM is 88.3%.

Q: What about the inhibition in vivo at 15 mg/kg (B16-F10 [10]) of the same molecule?
A: The inhibition in vivo at 15 mg/kg was 57.9%.

Q: And the Activity (B16-F10 [11])?
A: Its Activity is 18.8%.

Q: And the Activity (B16-F10 [12])?
A: Its Activity is “Dose-dependent-effect”.

Q: What about the Activity (B16-F10 [13]) of the same molecule?
A: Its Activity is 51.86%.

Q: What about the Activity (B16-F10 [14]) of the same molecule?
A: Its Activity is 15.61%.

Q: And the IC50 (MCF7)?
A: Its IC50 is 259 nM.

Q: What about the IC50 (HepG2) of the same molecule?
A: Its IC50 is 109 nM.

Q: What about the Activity (B16-F10 [15]) of the same molecule?
A: Its Activity is 0.36%.

Q: What about the Activity (B16-F10 [16]) of the same molecule?
A: The Activity was 1.7%.

Q: And the Activity (B16-F10 [17])?
A: Its Activity is 32.53%.

Q: And the Activity (B16-F10 [18])?
A: Its Activity is 69.89%.

Q: What about the Activity (B16-F10 [19]) of the same molecule?
A: Its Activity is 9.96%.

Q: What about the viability at 0.1 µM (B16-F10 [20]) of the same molecule?
A: The viability at 0.1 µM was 86%.

Q: What about the Activity (B16-F10 [21]) of the same molecule?
A: The Activity was 22.2%.

Q: And the Activity (B16-F10 [22])?
A: The Activity was 9.91%.

Q: And the IC50 (Tubulin)?
A: Its IC50 is 22200 nM.

Q: What about the inhibition (Tubulin (Homo sapiens) [23]) of the same molecule?
A: The inhibition was “Dose-dependent-effect”.

Q: What about the inhibition in vivo at 30 mg/kg (B16-F10 [24]) of the same molecule?
A: Its inhibition in vivo at 30 mg/kg is 79.6%.

Q: What about the Activity (B16-F10 [25]) of the same molecule?
A: The Activity was 0.52%.

Q: What about the Activity (Tubulin (Homo sapiens) [26]) of the same molecule?
A: The Activity was “Active”.

Q: What about the Activity (B16-F10 [27]) of the same molecule?
A: Its Activity is 37.37%.

Q: And the Activity (B16-F10 [28])?
A: The Activity was 8.25%.

Q: What about the viability at 0.2 µM (B16-F10 [29]) of the same molecule?
A: The viability at 0.2 µM was 77.4%.

Q: And the Activity (B16-F10 [30])?
A: The Activity was 1.71%.

Q: And the Activity (B16-F10 [31])?
A: Its Activity is 82.41%.

Q: What about the Activity (B16-F10 [32]) of the same molecule?
A: The Activity was 3.4%.

Q: What about the Activity (B16-F10 [33]) of the same molecule?
A: Its Activity is 22.38%.

Q: And the Activity (B16-F10 [34])?
A: The Activity was 65.06%.

Q: And the Activity [35]?
A: The Activity was “Non-toxic”.

Q: What about the Activity [36] of the same molecule?
A: Its Activity is “Non-toxic”.
